Patent US20210261642A1, “SOLUBILITY OF GLP-1 PEPTIDE” (Novo Nordisk A/S, priority 2017, published 2021)

Assay: Assay (I): Determination of Solubility (96-well plate, pH 3.0-11.0, organic solvent 0-70% w/w, UV absorption at 280 nm)
Assay type: physicochemical
Settings: Method 2 (precipitation), 5° C.
Procedure: Assay (I): Determination of Solubility
96-Well Plate Preparation
96-well plates containing target peptide in a solid form were prepared in one of two ways:
Method 1 (evaporation): Addition of 100 μl stock solution of said peptide at a concentration of 4-6 mg/ml to each well of a 96-well half area plate (150 μl well size). Subsequently the solvent was evaporated by applying a vacuum until the solvent was completely removed.
Method 2 (precipitation): Addition of a certain volume of a stock solution of said peptide containing to each well of a 96-well half area plate followed by the addition of a certain volume of concentrated phosphoric acid to obtain a pH of 4.6 followed by addition of a certain volume of ethanol resulting in a final ethanol concentration of 20% v/v. Subsequently the plate was stored at 4° C. for 1 h and then centrifuged at 4,000 rpm for 20 min. Finally the supernatant was removed. The concentration of the stock solution was chosen in a way that the final amount of peptide after supernatant removal was >0.4 mg per well.
In both cases the stock solution was prepared by adding de-ionized water to a certain amount of powder of said peptide followed by a stepwise addition of small amounts of a concentrated sodium hydroxide solution until said peptide was completely in solution.
To determine solubility of a target peptide at different pH and organic solvent concentrations, two different buffer systems were used in independent experiments to cover the whole range from pH 3.0 to pH 11.0. Buffer system 1 covers pH 3.0-7.5 and buffer system 2 covers pH 7.5-11.0. For each buffer system 96 different solvent compositions were premixed in the following way: • 1. A low pH buffer (adjusted to either pH 3.0 or pH 7.5) and a high pH buffer (adjusted to either pH 7.5 or pH 11.0) were mixed at 8 different ratios to obtain values between pH 3.0 and pH 7.5 or pH 7.5 and pH 11.0, respectively. The total volume after mixing was 300 μl. • 2. 12 different amounts of organic solvent were then added to these buffers to obtain organic solvent (e.g. ethanol) concentrations between 0 and 70% w/w. • 3. Water was then added to obtain a total weight of 1.0 g of solvent in each well.
After preparing the 96 different solvent systems, 100 μl of each system was transferred to the 96-well plate containing the solid form of the target peptide (prepared as described in the section “96-well plate preparation”). The plate was then stored at a given temperature (between 5° C. and 70° C.) for a given time on a rotating shaker set to 400 rpm. At regular time intervals the plate was centrifuged (4,000 rpm for 10 min) and a 10 μl sample was taken from each well. The samples were then analysed by UV absorption at 280 nm for peptide quantification. Peptide concentration results are given as UV absorption at 280 nm of the sample subtracted UV absorption at 280 nm of a well comprising 10 μl water.
The buffers used were as follows: • Buffer system 1 (for the pH range from pH 3.0-7.5)
• Buffer system 2 (for the pH ranae from pH 7.5-11.0)
Solubility of liraglutide was determined using Assay (I) described herein. Liraglutide was prepared using Method 1 (evaporation) or Method 2 (precipitation) as described in subsection “96-well plate preparation”.

Measured: GLP-1 peptide concentration

CCCCCCCCCCCCCCCC(=O)N[C@@H](CCC(=O)NCCCC[C@H](NC(=O)[C@H](C)NC(=O)[C@H](C)NC(=O)[C@H](CCC(N)=O)NC(=O)CNC(=O)[C@H](CCC(=O)O)NC(=O)[C@H](CC(C)C)NC(=O)[C@H](Cc1ccc(O)cc1)NC(=O)[C@H](CO)NC(=O)[C@H](CO)NC(=O)[C@@H](NC(=O)[C@H](CC(=O)O)NC(=O)[C@H](CO)NC(=O)[C@@H](NC(=O)[C@H](Cc1ccccc1)NC(=O)[C@@H](NC(=O)CNC(=O)[C@H](CCC(=O)O)NC(=O)[C@H](C)NC(=O)[C@@H](N)Cc1cnc[nH]1)[C@@H](C)O)[C@@H](C)O)C(C)C)C(=O)N[C@@H](CCC(=O)O)C(=O)N[C@@H](Cc1ccccc1)C(=O)N[C@H](C(=O)N[C@@H](C)C(=O)N[C@@H](Cc1c[nH]c2ccccc12)C(=O)N[C@@H](CC(C)C)C(=O)N[C@H](C(=O)N[C@@H](CCCNC(=N)N)C(=O)NCC(=O)N[C@@H](CCCNC(=N)N)C(=O)NCC(=O)O)C(C)C)[C@@H](C)CC)C(=O)O [liraglutide, Arg34,Lys26-(N-epsilon-(gamma-L-glutamyl(N-alfa-hexadecanoyl)))-GLP-1(7-37)]
2.4 mg/mL: MeCN 63.6% w/w, pH 7.50, 24 h, before removal of outliers
3.2 mg/mL: MeCN 63.6% w/w, pH 8.00, 24 h, after removal of outliers | MeCN 63.6% w/w, pH 8.00, 24 h, before removal of outliers
2.9 mg/mL: MeCN 63.6% w/w, pH 9.50, 180 min, after removal of outliers | MeCN 63.6% w/w, pH 9.50, 180 min, before removal of outliers
1.7 mg/mL: MeCN 57.3% w/w, pH 10.50, 24 h, after removal of outliers | MeCN 57.3% w/w, pH 10.50, 24 h, before removal of outliers | MeCN 63.6% w/w, pH 9.00, 180 min, after removal of outliers | MeCN 63.6% w/w, pH 9.00, 180 min, before removal of outliers
1.1 mg/mL: MeCN 57.3% w/w, pH 10.00, 24 h, after removal of outliers | MeCN 57.3% w/w, pH 10.00, 24 h, before removal of outliers
1.2 mg/mL: MeCN 63.6% w/w, pH 8.00, 180 min, after removal of outliers | MeCN 63.6% w/w, pH 8.00, 180 min, before removal of outliers | MeCN 63.6% w/w, pH 9.50, 24 h, after removal of outliers | MeCN 63.6% w/w, pH 9.50, 24 h, before removal of outliers
2.5 mg/mL: MeCN 57.3% w/w, pH 9.50, 24 h, after removal of outliers | MeCN 57.3% w/w, pH 9.50, 24 h, before removal of outliers
0.4 mg/mL: MeCN 57.3% w/w, pH 10.00, 5 min, after removal of outliers | MeCN 57.3% w/w, pH 10.00, 5 min, before removal of outliers | MeCN 63.6% w/w, pH 7.50, 5 min, before removal of outliers | MeCN 63.6% w/w, pH 10.00, 5 min, after removal of outliers
1.0 mg/mL: MeCN 63.6% w/w, pH 7.50, 180 min, before removal of outliers
3.6 mg/mL: MeCN 57.3% w/w, pH 11.00, 24 h, after removal of outliers | MeCN 57.3% w/w, pH 11.00, 24 h, before removal of outliers
0.6 mg/mL: MeCN 63.6% w/w, pH 9.50, 5 min, after removal of outliers | MeCN 63.6% w/w, pH 9.50, 5 min, before removal of outliers
>4.0 mg/mL: MeCN 57.3% w/w, pH 9.50, 180 min, after removal of outliers | MeCN 57.3% w/w, pH 9.50, 180 min, before removal of outliers | MeCN 57.3% w/w, pH 10.00, 180 min, after removal of outliers | MeCN 57.3% w/w, pH 10.00, 180 min, before removal of outliers | MeCN 57.3% w/w, pH 10.50, 180 min, after removal of outliers | MeCN 57.3% w/w, pH 10.50, 180 min, before removal of outliers | MeCN 57.3% w/w, pH 11.00, 180 min, after removal of outliers | MeCN 57.3% w/w, pH 11.00, 180 min, before removal of outliers | MeCN 63.6% w/w, pH 9.00, 24 h, after removal of outliers | MeCN 63.6% w/w, pH 9.00, 24 h, before removal of outliers
3.1 mg/mL: MeCN 63.6% w/w, pH 8.50, 180 min, after removal of outliers | MeCN 63.6% w/w, pH 8.50, 180 min, before removal of outliers | MeCN 63.6% w/w, pH 8.50, 24 h, after removal of outliers | MeCN 63.6% w/w, pH 8.50, 24 h, before removal of outliers
0.5 mg/mL: MeCN 57.3% w/w, pH 9.50, 5 min, before removal of outliers | MeCN 57.3% w/w, pH 10.50, 5 min, after removal of outliers | MeCN 57.3% w/w, pH 10.50, 5 min, before removal of outliers | MeCN 57.3% w/w, pH 11.00, 5 min, after removal of outliers | MeCN 57.3% w/w, pH 11.00, 5 min, before removal of outliers | MeCN 63.6% w/w, pH 8.00, 5 min, after removal of outliers | MeCN 63.6% w/w, pH 8.00, 5 min, before removal of outliers | MeCN 63.6% w/w, pH 8.50, 5 min, after removal of outliers | MeCN 63.6% w/w, pH 8.50, 5 min, before removal of outliers | MeCN 63.6% w/w, pH 9.00, 5 min, after removal of outliers | MeCN 63.6% w/w, pH 9.00, 5 min, before removal of outliers
